Literature values, collected in paper PMC8374649, “IBI362 (LY3305677), a weekly-dose GLP-1 and glucagon receptor dual agonist, in Chinese adults with overweight or obesity: A randomised, placebo-controlled, multiple ascending dose phase 1b study” (EClinicalMedicine, 2021).

Experiments:
[1] = test system: patients with type 2 diabetes; conditions: 12-week administration; cited from earlier work
From the text: A remarkable and unexpected finding of this study was the statistically significant reduction in serum uric acid levels in participants receiving IBI362. BMI is strongly positively correlated with serum uric acid levels, and weight loss is a commonly recommended treatment for gout, a disease resulting from chronic elevation of serum uric acid, [29], [30]. Although GLP-1 receptor agonists promote weight loss, direct evidence regarding the relationship between GLP-1 receptor agonists and blood uric acid level is limited.

[2] = test system: Japanese adults with type 2 diabetes; conditions: once-daily, 48-day phase 2a study; cited from earlier work
From the text: Despite the weight loss effect of glucagon, its inherited stimulation of gluconeogenesis and glycogenolysis requires optimal balancing of GLP-1 and glucagon receptor activities for dual agonists. […] IBI362 has b ...

Substance	Plasma uric acid levels compared with placebo [1]	Weight loss and glycaemic control [2]
liraglutide (HAEGTFTSDVSSYLEGQAAKEFIAWLVRGRG; chains of the INN, looked up) [GLP-1 receptor agonist]	did not reduce plasma uric acid levels	–
Cotadutide	–	optimal weight loss and glycaemic control
